{"source": "patent US20140170768A1", "about": "“METHOD FOR MONITORING AND ASSESSING PITUITARY FUNCTION” (priority 2012, published 2014)", "assay_type_in_all_cases": "in vivo, human", "key": {"[1]": {"test_system": "patients with Cushing's syndrome secondary to ectopic ACTH secretion", "test": "Case One: ACTH and cortisol response to mifepristone in Cushing's syndrome secondary to ectopic ACTH secretion", "description": "(§1) Hypercortisolism can result from excessive pituitary ACTH secretion, ectopic ACTH synthesis, overproduction of cortisol by an adrenal tumor, and rarely by extra-hypothalamic CRH production. Identifying the cause of excess cortisol production relies upon the sensitivity of pituitary-dependent ACTH secretion to inhibition by pharmacologic doses of dexamethasone. Mifepristone is a glucocorticoid receptor antagonist approved for the treatment of hyperglycemia in patients with Cushing's disease. It was hypothesized that mifepristone, by blocking glucocorticoid receptors, could be used to identify patients with pituitary-dependent hypercortisolism (i.e., Cushing's disease), as ACTH and cortisol levels should rise in these patients following mifepristone administration, while ACTH and cortisol should not change following mifepristone administration in patients with ectopic ACTH or primary adrenal disease (i.e., Cushing's syndrome). To test this hypothesis, patients with either Cushing's Disease or Cushing's Syndrome were administered mifepristone and monitored under the following conditions. Data are presented relating to ACTH and cortisol responses in patients with Cushing's disease following transphenoidal surgery (n=18) (i.e., surgery in which surgical instruments are inserted into part of the brain by going through the nose and the sphenoid bone (a butterfly-shaped bone at the base of the skull) in order to remove tumors of the pituitary gland), patients with Cushing's disease following transphenoidal surgery and pituitary radiation therapy (n=23), and patients with Cushing's syndrome secondary to ectopic ACTH secretion (n=4). All patients received mifepristone 300 mg orally per day. ACTH and cortisol were measured as close to 8 AM as possible using a centralized laboratory (Quest Diagnostics, Collegeville, Pa.) 14 days after commencing mifepristone therapy."}, "[2]": {"test_system": "patients with Cushing's disease", "test": "Case One: ACTH and cortisol response to mifepristone in Cushing's disease patients after transphenoidal surgery, with or without radiation therapy", "description": "as §1"}, "[3]": {"test_system": "person with recurrent Cushing's disease", "test": "Case Two: ACTH and cortisol before and after a single mifepristone dose in recurrent Cushing's disease", "conditions": "8 AM the morning following a 300 mg dose", "method": "A person with recurrent Cushing's disease following pituitary surgery received a dose of 300 mg mifepristone. ACTH and cortisol were measured at 8 AM prior to and at 8 AM the morning following the dose of mifepristone."}, "[4]": {"test_system": "person with adrenal insufficiency", "test": "Case Three: ACTH and cortisol before and after a single mifepristone dose in adrenal insufficiency", "conditions": "8 AM on the day after a single 300 mg dose", "method": "ACTH and cortisol levels were low (ACTH<[…] and cortisol 2.4 micrograms/deciliter following exogenous ACTH administration). Based upon the finding of both low ACTH and cortisol, the cause of their adrenal insufficiency could be due to pituitary or to hypothalamic disease. […] ACTH and cortisol were measured at 8 AM on the day after they received a single dose of 300 mg mifepristone."}, "[5]": {"conditions": "Cushing's syndrome due to ectopic ACTH, Day 14 vs Day 0, NS"}, "[6]": {"conditions": "Cushing's disease after surgery and radiation therapy, Day 14 vs Day 0, mifepristone 300 mg/day orally"}, "[7]": {"conditions": "Cushing's disease, no radiation therapy, Day 14 vs Day 0, mifepristone 300 mg/day orally"}}, "data": [{"compound": "CC#C[C@]1(O)CC[C@H]2[C@@H]3CCC4=CC(=O)CCC4=C3[C@@H](c3ccc(N(C)C)cc3)C[C@@]21C", "note": "[mifepristone]", "values": [{"measurement": "ACTH, Fold change", "setting": "[1]; [5]", "value": "1.75 ± .75"}, {"measurement": "cortisol, Fold change", "setting": "[1]; [5]", "value": "1.21 ± .79"}, {"measurement": "change in ACTH or cortisol following mifepristone therapy", "setting": "[1]; patients with ectopic ACTH, mifepristone 300 mg/day, 14 days", "value": "substantially no significant change"}, {"measurement": "ACTH s/p RT, Fold change", "setting": "[2]; [6]", "value": "1.40 ± .45"}, {"measurement": "cortisol s/p RT, Fold change", "setting": "[2]; [6]", "value": "1.24 ± .23"}, {"measurement": "rise in ACTH and cortisol, no radiation therapy versus radiation therapy", "setting": "[2]; Cushing's disease no RT compared with s/p RT, mifepristone 300 mg/day, 14 days", "value": "significantly greater rise"}, {"measurement": "ACTH no RT, Fold change", "setting": "[2]; [7]", "value": "2.13 ± .96"}, {"measurement": "cortisol no RT, Fold change", "setting": "[2]; [7]", "value": "1.56 ± .6"}, {"measurement": "cortisol Post-mifepristone", "setting": "[3]; pre-mifepristone 19.7", "value": 32.9, "unit": "micrograms/deciliter"}, {"measurement": "ACTH Post-mifepristone", "setting": "[3]; pre-mifepristone 84", "value": 129, "unit": "picograms/ml plasma"}, {"measurement": "cortisol Post-mifepristone", "setting": "[4]; pre-mifepristone 2.1", "value": 11.3, "unit": "micrograms/deciliter"}, {"measurement": "ACTH Post-mifepristone", "setting": "[4]; pre-mifepristone <5", "value": 13, "unit": "picograms/ml plasma"}]}]}
